Laboratory results taken from ChEMBL document CHEMBL4507268 (2021).

Columns and labels:
[1] = biological target: Sodium-dependent noradrenaline transporter (Homo sapiens) (UniProt P23975); conditions: Compound concentration 10.0 uM
[2] = biological target: Alpha-2B adrenergic receptor (Homo sapiens) (UniProt P18089); conditions: Compound concentration 10.0 uM
[3] = biological target: Protein kinase C gamma type (Homo sapiens) (UniProt P05129); conditions: Compound concentration 1.0 uM
[4] = biological target: Tyrosine-protein kinase Fer (Homo sapiens) (UniProt P16591); conditions: Compound concentration 1.0 uM
[5] = biological target: Calcium/calmodulin-dependent protein kinase type II subunit beta (Homo sapiens) (UniProt Q13554); conditions: Compound concentration 1.0 uM
[6] = biological target: PI3-kinase p110-delta/p85-alpha (Homo sapiens) (UniProt P27986+O00329); conditions: Compound concentration 1.0 uM
[7] = biological target: Eukaryotic translation initiation factor 2-alpha kinase 3 (Homo sapiens) (UniProt Q9NZJ5); conditions: Compound concentration 1.0 uM
[8] = biological target: T1, Serine/threonine-protein kinase STK11 (Homo sapiens) (UniProt Q15831); conditions: Compound concentration 1.0 uM
T1 sequence (whole entry): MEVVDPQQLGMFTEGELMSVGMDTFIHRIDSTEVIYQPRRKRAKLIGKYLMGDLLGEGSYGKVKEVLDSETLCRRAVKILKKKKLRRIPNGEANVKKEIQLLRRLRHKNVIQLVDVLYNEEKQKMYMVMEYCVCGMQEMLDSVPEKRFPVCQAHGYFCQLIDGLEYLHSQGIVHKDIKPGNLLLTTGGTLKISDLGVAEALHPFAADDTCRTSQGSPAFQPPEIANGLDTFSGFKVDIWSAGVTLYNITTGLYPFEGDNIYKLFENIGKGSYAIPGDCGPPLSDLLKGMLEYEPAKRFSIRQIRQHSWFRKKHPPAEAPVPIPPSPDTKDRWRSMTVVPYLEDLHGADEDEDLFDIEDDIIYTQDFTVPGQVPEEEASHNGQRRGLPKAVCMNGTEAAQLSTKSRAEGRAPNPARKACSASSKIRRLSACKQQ

[9] = biological target: T2, Interleukin-1 receptor-associated kinase 4 (Homo sapiens) (UniProt Q9NWZ3); conditions: Compound concentration 1.0 uM
T2 sequence (whole entry): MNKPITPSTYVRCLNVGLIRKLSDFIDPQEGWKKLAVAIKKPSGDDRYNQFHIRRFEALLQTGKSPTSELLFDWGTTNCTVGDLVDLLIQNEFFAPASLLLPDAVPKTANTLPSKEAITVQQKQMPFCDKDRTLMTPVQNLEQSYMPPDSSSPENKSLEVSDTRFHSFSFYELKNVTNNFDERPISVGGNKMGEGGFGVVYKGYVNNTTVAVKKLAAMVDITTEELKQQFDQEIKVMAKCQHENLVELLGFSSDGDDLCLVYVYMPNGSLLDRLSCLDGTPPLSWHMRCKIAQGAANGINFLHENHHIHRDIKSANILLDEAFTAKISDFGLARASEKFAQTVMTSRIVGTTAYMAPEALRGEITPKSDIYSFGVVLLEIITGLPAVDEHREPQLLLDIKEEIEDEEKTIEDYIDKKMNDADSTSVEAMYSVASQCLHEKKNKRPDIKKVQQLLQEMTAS

[10] = biological target: PI3K p110 beta/p85 alpha (Homo sapiens) (UniProt P27986+P42338); conditions: Compound concentration 1.0 uM
Sequence of PI3K p110 beta/p85 alpha (Homo sapiens) (P27986 2-724 limits assumed): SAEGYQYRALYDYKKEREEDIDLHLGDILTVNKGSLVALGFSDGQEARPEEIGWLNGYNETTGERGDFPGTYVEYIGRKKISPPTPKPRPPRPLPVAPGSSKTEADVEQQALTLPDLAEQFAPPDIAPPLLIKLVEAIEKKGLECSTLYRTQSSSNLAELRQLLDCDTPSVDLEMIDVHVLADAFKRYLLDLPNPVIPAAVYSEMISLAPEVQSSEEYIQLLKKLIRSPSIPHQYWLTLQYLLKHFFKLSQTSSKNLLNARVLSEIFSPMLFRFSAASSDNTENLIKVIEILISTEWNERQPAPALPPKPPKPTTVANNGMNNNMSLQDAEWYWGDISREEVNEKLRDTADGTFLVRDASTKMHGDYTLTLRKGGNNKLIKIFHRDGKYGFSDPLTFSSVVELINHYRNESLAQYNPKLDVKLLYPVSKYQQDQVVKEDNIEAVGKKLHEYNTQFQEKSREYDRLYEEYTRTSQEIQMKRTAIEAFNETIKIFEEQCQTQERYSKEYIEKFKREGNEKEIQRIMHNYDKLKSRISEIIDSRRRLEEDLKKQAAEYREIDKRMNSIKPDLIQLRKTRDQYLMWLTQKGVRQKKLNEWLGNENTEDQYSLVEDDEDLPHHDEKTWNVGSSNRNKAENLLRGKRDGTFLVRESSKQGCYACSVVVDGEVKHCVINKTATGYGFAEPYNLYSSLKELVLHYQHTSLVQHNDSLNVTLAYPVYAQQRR
Sequence of PI3K p110 beta/p85 alpha (Homo sapiens) (P42338 whole entry partner): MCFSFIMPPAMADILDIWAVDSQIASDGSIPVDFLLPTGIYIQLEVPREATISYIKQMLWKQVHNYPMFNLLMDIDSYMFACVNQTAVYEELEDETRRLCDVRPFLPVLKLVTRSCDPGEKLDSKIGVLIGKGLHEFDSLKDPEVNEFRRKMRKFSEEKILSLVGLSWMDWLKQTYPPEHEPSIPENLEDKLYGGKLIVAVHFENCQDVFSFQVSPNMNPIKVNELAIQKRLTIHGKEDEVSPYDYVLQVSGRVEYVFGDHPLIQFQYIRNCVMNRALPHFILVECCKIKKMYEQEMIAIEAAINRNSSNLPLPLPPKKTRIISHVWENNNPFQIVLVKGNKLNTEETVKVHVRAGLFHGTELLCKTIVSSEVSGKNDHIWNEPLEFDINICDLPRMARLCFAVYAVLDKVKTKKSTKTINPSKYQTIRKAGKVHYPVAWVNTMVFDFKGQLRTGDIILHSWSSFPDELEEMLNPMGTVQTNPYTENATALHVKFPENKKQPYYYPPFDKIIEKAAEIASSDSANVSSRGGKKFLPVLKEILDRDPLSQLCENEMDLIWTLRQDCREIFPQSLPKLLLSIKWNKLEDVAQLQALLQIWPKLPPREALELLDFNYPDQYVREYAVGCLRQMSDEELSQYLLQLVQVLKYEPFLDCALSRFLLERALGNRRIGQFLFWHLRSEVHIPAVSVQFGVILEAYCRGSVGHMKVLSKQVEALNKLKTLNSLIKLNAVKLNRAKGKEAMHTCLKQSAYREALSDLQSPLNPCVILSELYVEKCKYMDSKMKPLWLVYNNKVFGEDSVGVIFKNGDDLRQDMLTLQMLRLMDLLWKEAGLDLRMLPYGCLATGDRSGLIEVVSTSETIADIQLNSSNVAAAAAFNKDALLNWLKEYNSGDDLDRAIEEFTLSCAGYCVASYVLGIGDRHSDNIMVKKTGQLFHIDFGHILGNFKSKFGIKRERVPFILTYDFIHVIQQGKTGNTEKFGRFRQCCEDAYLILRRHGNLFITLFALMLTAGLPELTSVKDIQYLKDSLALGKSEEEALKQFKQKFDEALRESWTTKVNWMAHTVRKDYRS

[11] = biological target: Serine/threonine-protein kinase A-Raf (Homo sapiens) (UniProt P10398); conditions: Compound concentration 1.0 uM
Sequence of Serine/threonine-protein kinase A-Raf (Homo sapiens) (P10398 whole entry): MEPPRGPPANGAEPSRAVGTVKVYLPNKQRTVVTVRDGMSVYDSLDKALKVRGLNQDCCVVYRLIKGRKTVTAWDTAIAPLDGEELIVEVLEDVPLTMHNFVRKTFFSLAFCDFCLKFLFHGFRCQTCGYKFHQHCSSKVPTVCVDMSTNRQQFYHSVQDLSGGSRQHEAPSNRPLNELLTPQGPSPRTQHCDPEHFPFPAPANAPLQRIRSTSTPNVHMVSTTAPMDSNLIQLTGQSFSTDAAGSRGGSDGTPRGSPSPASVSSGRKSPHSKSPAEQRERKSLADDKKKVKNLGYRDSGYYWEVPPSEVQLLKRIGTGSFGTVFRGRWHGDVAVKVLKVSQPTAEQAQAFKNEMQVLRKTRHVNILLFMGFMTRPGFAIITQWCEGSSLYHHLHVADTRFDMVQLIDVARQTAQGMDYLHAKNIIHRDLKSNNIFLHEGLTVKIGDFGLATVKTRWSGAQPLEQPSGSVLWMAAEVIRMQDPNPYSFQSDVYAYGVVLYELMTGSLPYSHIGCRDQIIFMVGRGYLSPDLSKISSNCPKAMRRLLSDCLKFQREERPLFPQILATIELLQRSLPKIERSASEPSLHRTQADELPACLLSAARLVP

[12] = biological target: T3, Aurora kinase C (Homo sapiens) (UniProt Q9UQB9); conditions: Compound concentration 1.0 uM
T3 sequence (whole entry): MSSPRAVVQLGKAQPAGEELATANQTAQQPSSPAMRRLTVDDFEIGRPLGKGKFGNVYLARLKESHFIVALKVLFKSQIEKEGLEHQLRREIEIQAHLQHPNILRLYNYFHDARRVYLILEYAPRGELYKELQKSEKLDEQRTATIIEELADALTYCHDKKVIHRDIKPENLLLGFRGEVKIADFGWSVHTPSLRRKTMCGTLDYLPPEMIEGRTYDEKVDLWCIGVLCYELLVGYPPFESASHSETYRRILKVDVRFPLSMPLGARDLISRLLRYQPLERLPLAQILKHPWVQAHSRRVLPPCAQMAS

[13] = biological target: Serine/threonine-protein kinase PAK 2 (Homo sapiens) (UniProt Q13177); conditions: Compound concentration 1.0 uM
[14] = biological target: Dual specificity mitogen-activated protein kinase kinase 1 (Homo sapiens) (UniProt Q02750); conditions: Compound concentration 1.0 uM
Sequence of Dual specificity mitogen-activated protein kinase kinase 1 (Homo sapiens) (Q02750 whole entry): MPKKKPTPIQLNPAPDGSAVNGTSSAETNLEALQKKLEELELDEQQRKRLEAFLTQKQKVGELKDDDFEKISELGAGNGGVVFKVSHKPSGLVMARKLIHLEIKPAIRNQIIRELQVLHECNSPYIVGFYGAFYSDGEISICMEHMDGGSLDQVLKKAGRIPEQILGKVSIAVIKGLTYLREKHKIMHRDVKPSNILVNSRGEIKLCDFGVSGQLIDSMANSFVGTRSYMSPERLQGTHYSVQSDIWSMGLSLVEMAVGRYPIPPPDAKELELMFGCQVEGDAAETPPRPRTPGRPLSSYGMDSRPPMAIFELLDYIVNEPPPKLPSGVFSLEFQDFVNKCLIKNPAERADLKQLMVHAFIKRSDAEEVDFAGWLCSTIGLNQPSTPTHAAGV

[15] = biological target: Tyrosine-protein kinase SYK (Homo sapiens) (UniProt P43405); conditions: Compound concentration 1.0 uM
[16] = biological target: T4, Beta-adrenergic receptor kinase 1 (Homo sapiens) (UniProt P25098); conditions: Compound concentration 1.0 uM
T4 sequence (whole entry): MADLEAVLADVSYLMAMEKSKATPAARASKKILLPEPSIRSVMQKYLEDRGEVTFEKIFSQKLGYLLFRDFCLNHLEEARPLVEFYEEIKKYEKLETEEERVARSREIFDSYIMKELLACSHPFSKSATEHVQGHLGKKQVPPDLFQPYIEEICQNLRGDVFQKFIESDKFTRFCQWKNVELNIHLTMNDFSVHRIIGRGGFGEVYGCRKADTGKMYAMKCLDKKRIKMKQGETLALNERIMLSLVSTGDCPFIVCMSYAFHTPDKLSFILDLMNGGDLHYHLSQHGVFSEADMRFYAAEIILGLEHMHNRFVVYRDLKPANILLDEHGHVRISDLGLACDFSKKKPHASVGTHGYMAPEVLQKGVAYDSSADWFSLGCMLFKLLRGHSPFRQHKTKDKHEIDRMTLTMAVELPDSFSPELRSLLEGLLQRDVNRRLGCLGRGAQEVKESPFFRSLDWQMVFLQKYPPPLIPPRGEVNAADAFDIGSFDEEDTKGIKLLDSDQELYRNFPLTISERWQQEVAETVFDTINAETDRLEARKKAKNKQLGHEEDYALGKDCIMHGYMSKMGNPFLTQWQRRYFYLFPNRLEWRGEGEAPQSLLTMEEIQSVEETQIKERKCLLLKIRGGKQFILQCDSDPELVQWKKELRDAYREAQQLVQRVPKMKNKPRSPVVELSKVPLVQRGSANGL

[17] = biological target: Dual specificity tyrosine-phosphorylation-regulated kinase 1B (Homo sapiens) (UniProt Q9Y463); conditions: Compound concentration 1.0 uM
[18] = biological target: Insulin receptor-related protein (Homo sapiens) (UniProt P14616); conditions: Compound concentration 1.0 uM
Sequence of Insulin receptor-related protein (Homo sapiens) (P14616 27-742 limits assumed): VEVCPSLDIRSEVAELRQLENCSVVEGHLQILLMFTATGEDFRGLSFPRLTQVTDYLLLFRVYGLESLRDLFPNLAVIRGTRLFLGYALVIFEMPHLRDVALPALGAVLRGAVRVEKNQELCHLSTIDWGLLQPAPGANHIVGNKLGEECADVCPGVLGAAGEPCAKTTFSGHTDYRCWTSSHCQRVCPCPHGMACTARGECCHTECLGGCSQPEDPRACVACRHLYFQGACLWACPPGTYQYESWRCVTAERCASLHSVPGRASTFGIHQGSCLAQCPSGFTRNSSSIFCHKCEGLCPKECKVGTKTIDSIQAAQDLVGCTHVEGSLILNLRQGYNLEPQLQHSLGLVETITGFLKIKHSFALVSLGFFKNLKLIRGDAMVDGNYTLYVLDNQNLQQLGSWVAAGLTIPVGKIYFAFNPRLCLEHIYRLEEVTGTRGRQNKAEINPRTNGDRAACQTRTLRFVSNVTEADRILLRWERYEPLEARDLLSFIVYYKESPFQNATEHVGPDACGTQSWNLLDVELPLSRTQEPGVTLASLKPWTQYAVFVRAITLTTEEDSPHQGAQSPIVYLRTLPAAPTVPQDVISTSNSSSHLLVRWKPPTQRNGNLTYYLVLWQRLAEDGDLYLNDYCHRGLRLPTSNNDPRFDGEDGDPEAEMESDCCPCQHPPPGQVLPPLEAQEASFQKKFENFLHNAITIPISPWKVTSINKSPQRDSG
Sequence of Insulin receptor-related protein (Homo sapiens) (P14616 747-1297 limits assumed): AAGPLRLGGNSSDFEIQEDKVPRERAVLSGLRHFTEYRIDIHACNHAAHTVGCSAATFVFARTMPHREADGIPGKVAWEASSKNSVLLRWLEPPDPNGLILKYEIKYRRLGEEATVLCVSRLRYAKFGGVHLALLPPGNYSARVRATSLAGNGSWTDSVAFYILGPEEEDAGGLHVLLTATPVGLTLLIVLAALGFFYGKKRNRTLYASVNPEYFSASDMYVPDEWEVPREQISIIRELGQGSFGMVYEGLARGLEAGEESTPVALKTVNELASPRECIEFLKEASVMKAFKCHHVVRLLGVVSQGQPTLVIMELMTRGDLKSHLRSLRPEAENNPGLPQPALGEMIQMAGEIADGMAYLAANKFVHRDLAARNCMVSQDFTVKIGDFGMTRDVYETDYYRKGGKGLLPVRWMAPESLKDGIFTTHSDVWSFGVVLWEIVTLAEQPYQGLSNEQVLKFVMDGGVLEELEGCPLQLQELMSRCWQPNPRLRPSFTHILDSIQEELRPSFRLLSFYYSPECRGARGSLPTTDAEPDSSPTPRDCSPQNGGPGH

[19] = biological target: Serine/threonine-protein kinase NIM1 (Homo sapiens) (UniProt Q8IY84); conditions: Compound concentration 1.0 uM
Sequence of Serine/threonine-protein kinase NIM1 (Homo sapiens) (Q8IY84 whole entry): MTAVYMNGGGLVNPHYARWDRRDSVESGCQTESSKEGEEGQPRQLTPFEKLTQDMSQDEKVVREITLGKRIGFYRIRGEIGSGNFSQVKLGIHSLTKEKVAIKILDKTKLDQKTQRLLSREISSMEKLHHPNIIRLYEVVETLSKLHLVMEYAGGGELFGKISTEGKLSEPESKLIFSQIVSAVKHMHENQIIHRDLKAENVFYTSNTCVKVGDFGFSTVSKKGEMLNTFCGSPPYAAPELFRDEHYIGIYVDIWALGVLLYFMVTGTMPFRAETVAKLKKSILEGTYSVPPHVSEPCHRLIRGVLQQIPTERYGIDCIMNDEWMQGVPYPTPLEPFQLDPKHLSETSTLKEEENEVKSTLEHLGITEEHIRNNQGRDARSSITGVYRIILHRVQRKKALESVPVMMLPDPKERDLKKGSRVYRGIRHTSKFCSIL

Sequence of Alpha-2B adrenergic receptor (Homo sapiens) (P18089 whole entry): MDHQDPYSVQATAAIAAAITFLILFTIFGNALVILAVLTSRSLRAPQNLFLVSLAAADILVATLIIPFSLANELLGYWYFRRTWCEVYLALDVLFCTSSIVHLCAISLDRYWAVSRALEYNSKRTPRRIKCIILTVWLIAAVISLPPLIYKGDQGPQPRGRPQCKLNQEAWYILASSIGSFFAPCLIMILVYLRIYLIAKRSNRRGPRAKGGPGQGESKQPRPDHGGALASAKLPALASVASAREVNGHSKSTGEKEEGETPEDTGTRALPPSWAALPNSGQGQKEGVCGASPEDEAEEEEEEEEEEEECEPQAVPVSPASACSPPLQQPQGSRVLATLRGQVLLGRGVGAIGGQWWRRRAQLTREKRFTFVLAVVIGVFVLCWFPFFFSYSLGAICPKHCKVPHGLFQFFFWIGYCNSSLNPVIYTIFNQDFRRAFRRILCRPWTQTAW

Cc1nc(C2CCN(C(=O)c3ccc(OC(F)(F)F)cc3N)CC2)c2ncc(N3CCN(C)CC3)cc2n1 [BAY-693]
inactive: inhibition [1] 24.6%

CN1CCN(c2cnc3c(C4CCN(C(=O)c5ccc(OC(F)(F)F)cc5N)CC4)ncnc3c2)CC1 [BAY-885]
inactive: inhibition [2] -8.47% | % residual kinase activity [3] 120% | % residual kinase activity [4] 38% | % residual kinase activity [5] 103% | % residual kinase activity [6] 102% | % residual kinase activity [7] 100% | % residual kinase activity [8] 104% | % residual kinase activity [9] 106% | % residual kinase activity [10] 98% | % residual kinase activity [11] 96% | % residual kinase activity [12] 95% | % residual kinase activity [13] 108% | % residual kinase activity [14] 115% | % residual kinase activity [15] 87% | % residual kinase activity [16] 85% | % residual kinase activity [17] 106% | % residual kinase activity [18] 111% | % residual kinase activity [19] 108%
